From patent US9051325B2, “Bicyclic [5,6] imidazo pyrimodone compounds for use in the treatment of diseases or conditions mediated by Lp-PLA2” (GlaxoSmithKline Intellectual Property Development Limited, priority 2013, dated 2015)
Read-outs that look alike come from different tables or passages of the source.

Tests used:
[1] = target: T1, recombinant human Lp-PLA2 (Homo sapiens, UniProt Q13093); assay: Recombinant human Lp-PLA2 assay (rhLp-PLA2, PED6 assay); type: biochemical
T1 sequence (Q13093 22-441): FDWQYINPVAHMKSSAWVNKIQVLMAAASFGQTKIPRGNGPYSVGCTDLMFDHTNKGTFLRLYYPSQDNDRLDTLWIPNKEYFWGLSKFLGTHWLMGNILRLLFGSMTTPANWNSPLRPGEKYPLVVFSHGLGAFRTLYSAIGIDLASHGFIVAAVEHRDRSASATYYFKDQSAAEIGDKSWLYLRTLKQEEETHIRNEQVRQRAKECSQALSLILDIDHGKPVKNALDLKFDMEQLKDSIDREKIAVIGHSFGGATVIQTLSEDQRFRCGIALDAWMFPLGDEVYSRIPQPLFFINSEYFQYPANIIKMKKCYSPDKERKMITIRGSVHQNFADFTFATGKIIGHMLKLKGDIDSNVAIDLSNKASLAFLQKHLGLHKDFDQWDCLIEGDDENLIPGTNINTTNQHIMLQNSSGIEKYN
Excerpt: (1) Recombinant Human Lp-PLA2 Assay (rhLp-PLA2) (Also Referred to as “PED6” Assay)
N-((6-(2,4-dinitrophenyl)amino)-hexanoyl)-2-(4,4-difluoro-5,7-dimethyl-4-bora-3a,4a-diaza-s-indacene-3-pentanoyl)-1-hexadecanoyl-sn-glycero-3-phosphoethanolamine, triethylammonium salt (PED6) is a commercially available fluorescently-labeled phospholipid, which is commercially available from Invitrogene and Molecular Probes. There is a quenching […] and a Bodipy fluorescein (FL) group in the sn2 position. Upon cleavage with Lp-PLA2, the Bodipy FL group is liberated and then may result in an increase in fluorescence. Inhibitors of Lp-PLA2 therefore prevent this cleavage and no fluorescent increase is observed.
The PED6 assay was run as an unquenched 10 μL assay. The source plate containing the compounds to be tested was prepared by making 1:3 (by volume) serial dilution of the compounds within DMSO on 384-well microplate. Then, 0.01 μL of the compounds on compound source plate were transferred into 384 well Greiner 784076 (black) plates using ECHO liquid dispenser. 5 μL of recombinant human Lp-PLA2 enzyme (4 nM (or […]) rhLp-PLA2 in assay buffer of 50 mM HEPES, pH 7.4, 150 mM NaCl, 1 mM CHAPS) was added to each well of the plate. Plates were centrifuged for 10 sec at 500 rpm. After 30 minutes preincubation, 5 μL of substrate ([…] PED6 [from 5 mM DMSO stock] in assay buffer of 50 mM HEPES, pH 7.4, 150 mM NaCl, 1 mM CHAPS) was added to 384 well Greiner 784076 (black) plates. Plates were centrifuged for 10 sec at 500 rpm. The plate was covered to protect it from light and incubated for 20 min at room temperature. The plates were read for fluorescence intensity at ex: 480/em: 540 using ViewLux microplate imager for Envision spectrofluoroimeters pIC50 data, curve and QC analysis was conducted by using XL fit module in Excel.

Lp-PLA2 in human plasma = target: T2, Lp-PLA2 in human plasma (Homo sapiens, UniProt Q13093); assay: Lp-PLA2 human plasma assay (Thio-PAF assay); type: biochemical; details: pooled human plasma; lower bounds; read-out: pIC50 values in the thio-PAF assay (converted)
T2 construct: from tissue; host or cells: pooled human plasma
T2 sequence (Q13093 22-441): T1 sequence (Q13093 22-441)
Excerpt: (3) Lipoprotein-Associated Phospholipase A2 (Lp-PLA2) Human Plasma Assay (Also Referred to as “Thio-PAF assay”)
The human plasma assay utilizes a thioester analog of PAF (phosphatidylcholine), where hydrolysis yields to the formation of a phospholipid containing a free thiol group. The amount of thiol is quantitated continuously by reacting with CPM (7-diethylamino-3-(4′-maleimidylphenyl)-4-methylcoumarin), a maleimide which increases in fluoresence after Michael addition of thiols. This assay may detect the activity of Lp-PLA2 in human plasma, as determined by specific inhibition by Lp-PLA2 inhibitors.
The thio-PAF assay was run as a quenched 15 μL assay. Compounds source plate was prepared by making 1:3 (by volume) serial dilution of the compounds into pure DMSO on 384-well microplate. 0.01 μL of compounds on compound source plate were transferred to 384 well Greiner 784076 (black) low-volume plates by ECHO liquid dispenser. 8 μL pooled human plasma, which was previously aliquoted and frozen, was added. Plates were centrifuged for 10 sec at 500 rpm. After 30 minutes preincubation, 2 μL of substrate solution comprising 2.5 mM 2-thio-PAF [from ethanol stock], 32 μM CPM [from a DMSO stock] and 3.2 mM NEM (N-ethylmaleimide) [made fresh daily in DMSO] in assay buffer of 50 mM HEPES, pH 7.4, 150 mM NaCl, 1 mM CHAPS was added to 384 well Greiner 784076 (black) low-volume plates by BRAVO liquid handling station. After 2 mins, reaction was quenched with 5 μL of 5% aqueous trifluoroacetic acid (TFA). Plates were covered to protect from light and incubated for 40 min at room temperature. Plates were read at ex: 380/em: 485 using-Envision microplate reader. PIC50 data, curve and QC analysis were conducted by using XLFit module in Excel.

[2] = lower bounds, read-out: pIC50 values in the PED6 assay (converted)
[3] = read-out: rhLp-PLA2 (PED6 assay) (pIC50) (converted)

Row | Structure (SMILES) | IC50 [1, 2] [nM] | IC50 (Lp-PLA2 in human plasma) [nM] | IC50 [1, 3] [nM]
1 | CC1Cn2c(cc(OCc3ccc(Oc4cc(F)cc(C(F)(F)F)c4)c(C#N)c3)nc2=O)N1C (centres unmarked) [Example E1, 5-(((1,2-dimethyl-5-oxo-1,2,3,5-tetrahydroimidazo[1,2-c]pyrimidin-7-yl)oxy)methyl)-2-(3-fluoro-5-(trifluoromethyl)phenoxy)benzonitrile] | ≤ 1 | ≤ 100 | 
2 | CC1Cn2c(cc(OCc3ccc(F)c(F)c3)nc2=O)N1C (centres unmarked) [Example E2, 7-((3,4-difluorobenzyl)oxy)-1,2-dimethyl-2,3-dihydroimidazo[1,2-c]pyrimidin-5(1H)-one] | ≤ 10 | ≤ 100 | 
3 | CC1Cn2c(cc(OCc3ccc(Oc4ccc(C#N)c(C(F)(F)F)c4)c(F)c3)nc2=O)N1C (centres unmarked) [Example E3, 4-(4-(((1,2-dimethyl-5-oxo-1,2,3,5-tetrahydroimidazo[1,2-c]pyrimidin-7-yl)oxy)methyl)-2-fluorophenoxy)-2-(trifluoromethyl)benzonitrile] | ≤ 1 | ≤ 100 | 
4 | C[C@H]1Cn2c(cc(OCc3ccc(F)c(F)c3)nc2=O)N1C [Example E7, (S)-7-((3,4-difluorobenzyl)oxy)-1,2-dimethyl-2,3-dihydroimidazo[1,2-c]pyrimidin-5(1H)-one] | ≤ 10 | ≤ 100 | 
5 | CN1c2cc(OCCc3cccs3)nc(=O)n2CC1(C)C [Example E8, 1,2,2-trimethyl-7-(2-(thiophen-2-yl)ethoxy)-2,3-dihydroimidazo[1,2-c]pyrimidin-5(1H)-one] | ≤ 10 | ≤ 100 | 
6 | C[C@H]1Cn2c(cc(OCc3ccc(Oc4ccnc(C(F)(F)F)c4)c(F)c3)nc2=O)N1C [Example E10, (S)-7-((3-fluoro-4-((2-(trifluoromethyl)pyridin-4-yl)oxy)benzyl)oxy)-1,2-dimethyl-2,3-dihydroimidazo[1,2-c]pyrimidin-5(1H)-one] | ≤ 1 | ≤ 100 | 
7 | CN1c2cc(OCc3ccc(F)c(Cl)c3)nc(=O)n2CC1(C)C [Example E11, 7-((3-chloro-4-fluorobenzyl)oxy)-1,2,2-trimethyl-2,3-dihydroimidazo[1,2-c]pyrimidin-5(1H)-one] | ≤ 1 | ≤ 100 | 
8 | CN1c2cc(OCc3ccc(Oc4ccc(Cl)nc4)c(F)c3)nc(=O)n2CC1(C)C [Example E12, 7-((4-((6-chloropyridin-3-yl)oxy)-3-fluorobenzyl)oxy)-1,2,2-trimethyl-2,3-dihydroimidazo[1,2-c]pyrimidin-5(1H)-one] | ≤ 1 | ≤ 100 | 0.0316
9 | CN1c2cc(OCc3cc(F)c(Oc4ccc(Cl)nc4)c(F)c3)nc(=O)n2CC1(C)C [Example E13, 7-((4-((6-chloropyridin-3-yl)oxy)-3,5-difluorobenzyl)oxy)-1,2,2-trimethyl-2,3-dihydroimidazo[1,2-c]pyrimidin-5(1H)-one] | ≤ 1 | ≤ 100 | 0.0501
10 | [2H]C([2H])(Oc1cc2n(c(=O)n1)CC(C)(C)N2C([2H])([2H])[2H])c1cccc(F)c1F [Example E15, 7-(dideutero(2,3-difluorobenzyl)oxy)-1-trideuteromethyl-2,2-dimethyl-2,3-dihydroimidazo[1,2-c]pyrimidin-5(1H)-one] | ≤ 10 | ≤ 100 | 
11 | C[C@H]1Cn2c(cc(OCc3cc(F)c(Oc4ccc(C(F)(F)F)nc4)c(F)c3)nc2=O)N1 [Example E16, (S)-7-((3,5-difluoro-4-((6-(trifluoromethyl)pyridin-3-yl)oxy)benzyl)oxy)-2-methyl-2,3-dihydroimidazo[1,2-c]pyrimidin-5(1H)-one] | ≤ 1 | ≤ 100 | 
12 | N#Cc1cc(COc2cc3n(c(=O)n2)CCN3C2CC2)ccc1Oc1cccc(C(F)(F)F)c1 [Example E18, 5-(((1-cyclopropyl-5-oxo-1,2,3,5-tetrahydroimidazo[1,2-c]pyrimidin-7-yl)oxy)methyl)-2-(3-(trifluoromethyl)phenoxy)benzonitrile] | ≤ 1 | ≤ 100 | 
13 | C[C@H]1Cn2c(cc(OCc3ccc(Oc4ccc(C#N)c(C(F)(F)F)c4)c(F)c3)nc2=O)N1C [Example E19, (S)-4-(4-(((1,2-dimethyl-5-oxo-1,2,3,5-tetrahydroimidazo[1,2-c]pyrimidin-7-yl)ox-y)methyl)-2-fluorophenoxy)-2-(trifluoromethyl)benzonitrile] | ≤ 1 | ≤ 100 | 
14 | C[C@H]1Cn2c(cc(OCc3ccc(Oc4cncc(Cl)c4)c(F)c3)nc2=O)N1C [Example E23, (S)-7-((4-((5-chloropyridin-3-yl)oxy)-3-fluorobenzyl)oxy)-1,2-dimethyl-2,3-dihydroimidazo[1,2-c]pyrimidin-5(1H)-one] | ≤ 1 | ≤ 100 | 0.158
15 | CN1c2cc(OCc3cc(F)c(Oc4ccnc(C(F)(F)F)c4)c(F)c3)nc(=O)n2CC1(C)C [Example E25, 7-((3,5-difluoro-4-((2-(trifluoromethyl)pyridin-4-yl)oxy)benzyl)oxy)-1,2,2-trimethyl-2,3-dihydroimidazo[1,2-c]pyrimidin-(1H)-one] | ≤ 1 | ≤ 100 | 0.0794
16 | CN1c2cc(OCc3ccc(Oc4cncc(C(F)(F)F)c4)c(F)c3)nc(=O)n2CC1(C)C [Example E26, 7-((3-fluoro-4-((5-(trifluoromethyl)pyridin-3-yl)oxy)benzyl)oxy)-1,2,2-trimethyl-2,3-dihydroimidazo[1,2-c]pyrimidin-5(1H)-one] | ≤ 1 | ≤ 100 | 0.0158
17 | CN1c2cc(OCc3ccc(Oc4ccnc(F)c4)c(F)c3)nc(=O)n2CC1(C)C [Example E29, 7-((3-fluoro-4-((2-fluoropyridin-4-yl)oxy)benzyl)oxy)-1,2,2-trimethyl-2,3-dihydroimidazo[1,2-c]pyrimidin-5(1H)-one] | ≤ 1 | ≤ 100 | 0.2
18 | CN1c2cc(OCc3cc(F)c(Oc4ccnc(Cl)c4)c(F)c3)nc(=O)n2CC1(C)C [Example E30, 7-((4-((2-chloropyridin-4-yl)oxy)-3,5-difluorobenzyl)oxy)-1,2,2-trimethyl-2,3-dihydroimidazo[1,2-c]pyrimidin-5(1H)-one] | ≤ 1 | ≤ 100 | 
19 | CN1c2cc(OCc3cc(F)c(F)cc3F)nc(=O)n2CC1(C)C [Example E115, 1,2,2-trimethyl-7-((2,4,5-trifluorobenzyl)oxy)-2,3-dihydroimidazo[1,2-c]pyrimidin-5(1H)-one] |  | ≤ 100 | 
20 | CN1c2cc(OCCc3ccc(F)c(F)c3)nc(=O)n2CC1(C)C [Example E117, 7-(3,4-difluorophenethoxy)-1,2,2-trimethyl-2,3-dihydroimidazo[1,2-c]pyrimidin-5(1H)-one] |  | ≤ 100 | 
